Tests used:
Format in all cases: biochemical
Conditions in all cases: 10 μM ATP, 60 min, ADP-GLO luminescence
MER = biological target: T1, MER (Homo sapiens, UniProt Q12866); experiment: Enzymatic assay (ADP-Glo kinase reaction), MER
T1 sequence (Q12866 21-999): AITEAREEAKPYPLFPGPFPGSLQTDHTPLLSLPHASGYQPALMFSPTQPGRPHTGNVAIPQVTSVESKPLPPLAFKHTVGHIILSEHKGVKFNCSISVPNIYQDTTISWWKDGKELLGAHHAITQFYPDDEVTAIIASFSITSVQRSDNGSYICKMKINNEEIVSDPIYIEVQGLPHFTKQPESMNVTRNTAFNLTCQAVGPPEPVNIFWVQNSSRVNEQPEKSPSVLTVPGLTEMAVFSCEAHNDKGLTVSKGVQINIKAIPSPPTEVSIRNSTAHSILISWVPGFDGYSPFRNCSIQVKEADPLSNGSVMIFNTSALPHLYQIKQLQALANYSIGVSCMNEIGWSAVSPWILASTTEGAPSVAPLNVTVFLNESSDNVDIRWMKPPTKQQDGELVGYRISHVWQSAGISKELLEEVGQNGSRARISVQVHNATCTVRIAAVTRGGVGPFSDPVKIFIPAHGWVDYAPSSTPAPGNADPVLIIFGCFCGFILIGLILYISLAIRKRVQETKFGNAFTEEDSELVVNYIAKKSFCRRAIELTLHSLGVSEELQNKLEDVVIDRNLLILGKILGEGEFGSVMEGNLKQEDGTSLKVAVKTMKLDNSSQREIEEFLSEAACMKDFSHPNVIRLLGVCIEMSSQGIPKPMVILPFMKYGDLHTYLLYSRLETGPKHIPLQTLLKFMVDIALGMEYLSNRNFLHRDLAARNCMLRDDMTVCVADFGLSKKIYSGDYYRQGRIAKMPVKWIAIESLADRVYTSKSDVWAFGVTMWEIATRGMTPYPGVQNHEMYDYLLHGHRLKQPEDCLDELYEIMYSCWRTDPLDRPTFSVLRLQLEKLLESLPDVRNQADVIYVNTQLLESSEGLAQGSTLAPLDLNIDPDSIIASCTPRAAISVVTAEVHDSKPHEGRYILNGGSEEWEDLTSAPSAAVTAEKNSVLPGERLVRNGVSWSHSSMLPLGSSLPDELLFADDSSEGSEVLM
Method in brief: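 ADP-Glo luminescence assay of MER in tyrosine kinase buffer with 0.2 μg/μL poly(Glu4,Tyr1) substrate and 10 μM ATP. Serially diluted inhibitor reacted 60 min at room temperature. IC50 taken from luminescence after ADP-Glo and detection steps.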

c-MET = c-MET (Homo sapiens, UniProt P08581); experiment: Enzymatic assay (ADP-Glo kinase reaction), c-MET
Chain of c-MET (P08581 25-1390): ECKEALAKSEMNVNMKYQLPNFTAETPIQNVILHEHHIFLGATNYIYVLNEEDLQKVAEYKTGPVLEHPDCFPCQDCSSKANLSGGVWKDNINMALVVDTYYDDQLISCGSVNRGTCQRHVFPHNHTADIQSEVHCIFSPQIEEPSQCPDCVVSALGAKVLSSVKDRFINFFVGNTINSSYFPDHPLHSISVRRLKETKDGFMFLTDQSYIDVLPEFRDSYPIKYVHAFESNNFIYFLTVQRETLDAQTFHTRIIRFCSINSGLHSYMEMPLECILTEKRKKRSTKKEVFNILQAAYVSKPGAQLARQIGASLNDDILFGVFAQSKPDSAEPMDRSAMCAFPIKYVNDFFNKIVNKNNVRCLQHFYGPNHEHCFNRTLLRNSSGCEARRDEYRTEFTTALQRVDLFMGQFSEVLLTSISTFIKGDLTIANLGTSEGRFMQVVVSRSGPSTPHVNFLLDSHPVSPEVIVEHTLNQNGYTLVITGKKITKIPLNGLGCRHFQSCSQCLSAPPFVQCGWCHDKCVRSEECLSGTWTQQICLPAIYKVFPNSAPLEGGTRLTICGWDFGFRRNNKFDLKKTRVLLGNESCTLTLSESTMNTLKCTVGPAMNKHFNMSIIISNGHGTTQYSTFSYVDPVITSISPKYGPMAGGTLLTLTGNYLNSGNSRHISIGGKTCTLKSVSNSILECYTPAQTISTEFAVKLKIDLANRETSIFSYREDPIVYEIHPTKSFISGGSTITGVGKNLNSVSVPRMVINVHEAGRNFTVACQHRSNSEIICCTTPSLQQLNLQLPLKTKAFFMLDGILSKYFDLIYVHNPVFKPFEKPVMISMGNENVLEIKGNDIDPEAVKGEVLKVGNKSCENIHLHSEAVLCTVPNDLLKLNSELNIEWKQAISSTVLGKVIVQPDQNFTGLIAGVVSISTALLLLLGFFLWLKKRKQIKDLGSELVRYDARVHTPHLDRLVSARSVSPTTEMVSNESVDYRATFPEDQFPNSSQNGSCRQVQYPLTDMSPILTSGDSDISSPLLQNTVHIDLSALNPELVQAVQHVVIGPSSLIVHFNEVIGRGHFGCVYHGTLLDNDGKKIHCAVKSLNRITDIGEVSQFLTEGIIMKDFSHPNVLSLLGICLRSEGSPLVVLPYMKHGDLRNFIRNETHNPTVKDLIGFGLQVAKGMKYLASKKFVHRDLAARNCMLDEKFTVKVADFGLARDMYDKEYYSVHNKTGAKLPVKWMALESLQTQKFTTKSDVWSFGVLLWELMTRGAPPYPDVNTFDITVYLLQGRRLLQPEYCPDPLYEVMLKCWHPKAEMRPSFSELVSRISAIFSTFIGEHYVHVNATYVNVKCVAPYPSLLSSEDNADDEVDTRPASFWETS
Method in brief: (§1)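 For both AXL and c-MET, reactions in tyrosine kinase buffer used 0.2 μg/μL poly(Glu4,Tyr1) and 10 μM ATP with serially diluted inhibitor, 60 min at room temperature. ADP formed was read by ADP-Glo luminescence after 40 min reagent incubation.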

AXL = biological target: T2, AXL (Homo sapiens, UniProt P30530); experiment: Enzymatic assay (ADP-Glo kinase reaction), AXL
T2 sequence (P30530 26-894): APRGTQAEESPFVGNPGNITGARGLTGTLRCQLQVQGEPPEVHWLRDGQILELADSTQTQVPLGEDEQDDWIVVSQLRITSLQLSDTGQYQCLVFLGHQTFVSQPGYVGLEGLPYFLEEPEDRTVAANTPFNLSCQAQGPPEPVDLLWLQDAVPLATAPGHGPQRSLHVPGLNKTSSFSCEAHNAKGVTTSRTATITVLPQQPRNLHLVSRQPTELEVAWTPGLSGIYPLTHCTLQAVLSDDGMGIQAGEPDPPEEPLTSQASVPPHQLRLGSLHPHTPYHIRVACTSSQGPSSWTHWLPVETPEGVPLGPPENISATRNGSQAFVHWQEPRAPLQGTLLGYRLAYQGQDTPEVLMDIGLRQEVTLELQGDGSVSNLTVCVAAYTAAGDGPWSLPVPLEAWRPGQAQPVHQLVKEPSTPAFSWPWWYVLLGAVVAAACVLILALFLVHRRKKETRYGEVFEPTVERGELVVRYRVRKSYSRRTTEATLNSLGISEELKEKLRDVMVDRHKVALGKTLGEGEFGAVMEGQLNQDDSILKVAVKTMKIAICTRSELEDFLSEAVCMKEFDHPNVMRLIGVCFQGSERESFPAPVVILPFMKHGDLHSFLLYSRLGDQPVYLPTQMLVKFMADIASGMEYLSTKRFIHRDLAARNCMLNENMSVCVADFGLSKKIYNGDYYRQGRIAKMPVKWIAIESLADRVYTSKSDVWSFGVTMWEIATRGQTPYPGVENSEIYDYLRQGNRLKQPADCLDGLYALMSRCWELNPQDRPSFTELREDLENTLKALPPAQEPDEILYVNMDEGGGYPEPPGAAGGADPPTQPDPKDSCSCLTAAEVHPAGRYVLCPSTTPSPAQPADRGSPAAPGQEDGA
Method in brief: as §1

Row | IC50 (MER) [nM] | IC50 (c-MET) [nM] | IC50 (AXL) [nM] | SMILES
1 | < 10 | < 10 | < 10 | CC(C)n1cc(C(=O)Nc2ccc(Oc3ccnc(N)c3C#CC(=O)N3CCOCC3)c(F)c2)c(=O)n(-c2ccc(F)cc2)c1=O [Example 14, N-(4-(2-amino-3-(3-morpholino-3-oxoprop-1-ynyl)pyridin-4-yloxy)-3-fluorophenyl)-3-(4-fluorophenyl)-1-isopropyl-2,4-dioxo-1,2,3,4-tetrahydropyrimidine-5-carboxamide]
2 | < 10 | < 100 | < 100 | C=CCn1cc(C(=O)Nc2ccc(Oc3ccnc(N)c3C#CCC3CCNCC3)c(F)c2)c(=O)n(CC=C)c1=O [Example 71, 1,3-dialyl-N-(4-(2-amino-3-(3-(piperidin-4-yl)prop-1-ynyl)pyridin-4-yloxy)-3-fluorophenyl)-2,4-dioxo-1,2,3,4-tetrahydropyrimidine-5-carboxamide]
3 | < 10 | < 10 | < 10 | COCCN1CCN(CC#Cc2c(Oc3ccc(NC(=O)c4cn(C(C)C)c(=O)n(-c5ccc(F)cc5)c4=O)cc3F)ccnc2N)CC1 [Example 18, N-(4-(2-amino-3-(3-(4-(2-methoxyethyl)piperazin-1-yl)prop-1-ylny)pyridin-4-yloxy)-3-fluorophenyl)-3-(4-fluorophenyl)-1-isopropyl-2,4-dioxo-1,2,3,4-tetrahydropyrimidine-5-carboxamide]
4 | < 100 | < 10 | < 10 | CC(C)n1cc(C(=O)Nc2ccc(Oc3ccnc(N)c3C#Cc3ccccn3)c(F)c2)c(=O)n(-c2ccc(F)cc2)c1=O [Example 9, N-(4-(2-amino-3-(pyridin-2-ylethnyl)pyridin-4-yloxy)-3-fluorophenyl)-3-(4-fluorophenyl)-1-isopropyl-2,4-dioxo-1,2,3,4-tetrahydropyrimidine-5-carboxamide]
5 | < 100 | < 10000 | < 10000 | CN(C)C(=O)Cn1cc(C(=O)Nc2ccc(Oc3ccnc(N)c3C#CC(C)(C)N3CCNCC3)c(F)c2)c(=O)n(-c2ccc(F)cc2)c1=O [Example 35, N-(4-((2-amino-3-(3-methyl-3-(piperazin-1-yl)but-1-yn-1-yl)pyridin-4-yl)oxy)-3-fluorophenyl)-1-(2-(dimethylamino)-2-oxoethyl)-3-(4-fluorophenyl)-2,4-dioxo-1,2,3,4-tetrahydropyrimidine-5-carboxamide]
6 | < 10 | < 10 | < 10 | CC(C)N1CCC(CC#Cc2c(Oc3ccc(NC(=O)c4cn(C(C)C)c(=O)n(-c5ccc(F)cc5)c4=O)cc3F)ccnc2N)CC1 [Example 29, N-(4-(2-amino-3-(3-(1-isopropylpiperidin-4-yl)prop-1-ynyl)pyridin-4-yloxy)-3-fluorophenyl)-3-(4-fluorophenyl)-1-isopropyl-2,4-dioxo-1,2,3,4-tetrahydropyrimidine-5-carboxamide]
7 | < 100 | < 1000 | < 100 | CN1CCC(CC#Cc2c(Oc3ccc(NC(=O)c4nn(C)c(=O)n(-c5ccc(F)cc5)c4=O)cc3F)ccnc2N)CC1 [Example 45, N-(4-((2-amino-3-(3-(1-methylpiperidin-4-yl)prop-1-yn-1-yl)pyridin-4-yl)oxy)-3-fluorophenyl)-4-(4-fluorophenyl)-2-methyl-3,5-dioxo-2,3,4,5-tetrahydro-1,2,4-triazine-6-carboxamide]
8 | < 10 | < 100 | < 10 | CC(C)n1cc(C(=O)Nc2ccc(Oc3ccnc(N)c3C#CC3CCNCC3)c(F)c2)c(=O)n(-c2ccc(F)cc2)c1=O [Example 15, N-(4-(2-amino-3-(piperidin-4-ylethynyl)pyridin-4-yloxy)-3-fluorophenyl)-3-(4-fluorophenyl)-1-isopropyl-2,4-dioxo-1,2,3,4-tetrahydropyrimidine-5-carboxamide]
9 | < 10 | < 100 | < 100 | CN1CCN(C(C)(C)C#Cc2c(Oc3ccc(NC(=O)c4cn(C5CCOCC5)c(=O)n(-c5ccc(F)cc5)c4=O)cc3F)ccnc2N)CC1 [Example 57, N-(4-(2-amino-3-(3-methyl-3-(4-methylpiperazin-1-yl)but-1-ynyl)pyridin-4-yloxy)-3-fluorophenyl)-3-(4-fluorophenyl)-2,4-dioxo-1-(tetrahydro-2H-pyran-4-yl)-1,2,3,4-tetrahydropyrimidine-5-carboxamide]
10 | < 10 | < 10 | < 10 | CC(C)n1cc(C(=O)Nc2ccc(Oc3ccnc(N)c3C#CC(=O)N3CCNCC3)c(F)c2)c(=O)n(-c2ccc(F)cc2)c1=O [Example 1, N-(4-(2-amino-3-(3-oxo-3-(piperazin-1-yl)prop-1-ynyl)pyridin-4-yloxy)-3-fluorophenyl)-3-(4-fluorophenyl)-1-isopropyl-2,4-dioxo-1,2,3,4-tetrahydropyrimidine-5-carboxamide]
11 | < 10 | < 10 | < 10 | COCCN1CCN(C(=O)C#Cc2c(Oc3ccc(NC(=O)c4cn(C(C)C)c(=O)n(-c5ccc(F)cc5)c4=O)cc3F)ccnc2N)CC1 [Example 2, N-(4-(2-amino-3-(3-(4-(2-methoxyethyl)piperazin-1-yl)-3-oxoprop-1-ynyl)pyridin-4-yloxy)-3-fluorophenyl)-3-(4-fluorophenyl)-1-isopropyl-2,4-dioxo-1,2,3,4-teterahydropyrimidine-5-carboxamide]
12 | < 10 | < 10 | < 10 | CC(C)n1cc(C(=O)Nc2ccc(Oc3ccnc(N)c3C#N)c(F)c2)c(=O)n(-c2ccc(F)cc2)c1=O [Example 5, N-(4-(2-amino-3-cyanopyridin-4-yloxy)-3-fluorophenyl)-3-(4-fluorophenyl)-1-isopropyl-2,4-dioxo-1,2,3,4-tetrahydropyrimidine-5-carboxamide]
13 | < 10 | < 10 | < 10 | COCCN1CCC(CC#Cc2c(Oc3ccc(NC(=O)c4cn(C(C)C)c(=O)n(-c5ccc(F)cc5)c4=O)cc3F)ccnc2N)CC1 [Example 28, N-(4-(2-amino-3-(3-(1-(2-methoxyethyl)piperidin-4-yl)prop-1-ynyl)pyridin-4-yloxy)-3-fluorophenyl)-3-(4-fluorophenyl)-1-isopropyl-2,4-dioxo-1,2,3,4-tetrahydropyrimidine-5-carboxamide]
14 | < 100 | < 1000 | < 100 | CC(C)(C#Cc1c(Oc2ccc(NC(=O)c3c[nH]c(=O)n(-c4ccc(F)cc4)c3=O)cc2F)ccnc1N)N1CCNCC1 [Example 52, N-(4-(2-amino-3-(3-methyl-3-(piperazin-1-yl)but-1-ynyl)pyridin-4-yloxy)-3-fluorophenyl)-3-(4-fluorophenyl)-2,4-dioxo-1,2,3,4-tetrahydropyrimidine-5-carboxamide]
15 | < 10 | < 10 | < 10 | COCCN1CCC(C#Cc2c(Oc3ccc(NC(=O)c4cn(C(C)C)c(=O)n(-c5ccc(F)cc5)c4=O)cc3F)ccnc2N)CC1 [Example 16]

Reference: patent US20250171426A1, “PYRIMIDINEDIONE-BASED COMPOUNDS AS AXL, C-MET, AND MER INHIBITORS AND METHODS OF USE THEREOF” (CMG Pharmaceutical Co., Ltd., priority 2022, published 2025)
